From PubChem BioAssay (NCI)
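These data come from cells grown in 96-well plates and exposed to compound for 48 hours at five concentrations. Abbreviation: GI50, concentration required for 50% inhibition of growth. TGI is the concentration that stops growth completely.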

Assays:
Experiment in all cases: NCI anticancer screen, dose series, 48 h
[1] = tested on: SNB-75 CNS
[2] = tested on: CAKI-1 renal
[3] = tested on: SK-MEL-5 melanoma
[4] = tested on: HOP-62 NSCLC
[5] = tested on: OVCAR-3 ovarian
[6] = tested on: LOX IMVI melanoma
[7] = tested on: HT29 colon
[8] = tested on: DU-145 prostate
[9] = tested on: MCF7 breast
[10] = tested on: NCI-H460 lung
[11] = tested on: SN12C renal
[12] = tested on: RXF 393 renal
[13] = tested on: MALME-3M melanoma
[14] = tested on: CCRF-CEM leukemia
[15] = tested on: MOLT-4 leukemia
[16] = tested on: MDA-MB-231 breast
[17] = tested on: HOP-92 NSCLC
[18] = tested on: M14 melanoma
[19] = tested on: K-562 leukemia
[20] = tested on: KM12 colon
[21] = tested on: COLO 205 colon
[22] = tested on: OVCAR-4 ovarian
[23] = tested on: HCT-15 colon
[24] = tested on: MDA-MB-435
[25] = tested on: OVCAR-5 ovarian
[26] = tested on: SK-MEL-28 melanoma
[27] = tested on: ACHN renal
[28] = tested on: SR leukemia
[29] = tested on: NCI-H522 lung
[30] = tested on: U251 CNS
[31] = tested on: PC-3 prostate
[32] = tested on: NCI/ADR-RES ovarian
[33] = tested on: SF-268 CNS
[34] = tested on: SF-295 CNS
[35] = tested on: OVCAR-8 ovarian
[36] = tested on: TK-10 renal
[37] = tested on: EKVX NSCLC
[38] = tested on: SNB-19 CNS
[39] = tested on: A549 NSCLC
[40] = tested on: UACC-257 melanoma
[41] = tested on: A498 renal
[42] = tested on: NCI-H226 lung
[43] = tested on: HS 578T breast
[44] = tested on: HCT-116 colon
[45] = tested on: BT-549 breast
[46] = tested on: HL-60(TB) leukemia
[47] = tested on: SF-539 CNS
[48] = tested on: HCC-2998 colon
[49] = tested on: SW-620 colon
[50] = tested on: UACC-62 melanoma
[51] = tested on: SK-MEL-2 melanoma
[52] = tested on: RPMI-8226 leukemia
[53] = tested on: 786-0 renal
[54] = tested on: IGROV1 ovarian
[55] = tested on: T-47D breast
[56] = tested on: SK-OV-3 ovarian
[57] = tested on: NCI-H23 lung
[58] = tested on: UO-31 renal

Nc1ncc(-c2ccc3ncnc(N4CCc5cc(F)c(Cl)cc54)c3c2)cn1
GI50 [1]: 162 nM | TGI [1]: 1850 nM | GI50 [2]: 418 nM | TGI [2]: 6760 nM | GI50 [3]: 2290 nM | TGI [3]: 11000 nM | GI50 [4]: 1450 nM | TGI [4]: > 100000 nM | GI50 [5]: 1350 nM | TGI [5]: > 100000 nM | GI50 [6]: 1940 nM | TGI [6]: > 100000 nM | GI50 [7]: 1770 nM | TGI [7]: > 100000 nM | GI50 [8]: 722 nM | TGI [8]: > 100000 nM | GI50 [9]: 278 nM | TGI [9]: > 100000 nM | GI50 [10]: 1040 nM | TGI [10]: > 100000 nM | GI50 [11]: 1060 nM | TGI [11]: > 100000 nM | GI50 [12]: 350 nM | TGI [12]: 2260 nM | GI50 [13]: 1730 nM | TGI [13]: > 100000 nM | GI50 [14]: 1600 nM | TGI [14]: > 100000 nM | GI50 [15]: 1830 nM | TGI [15]: 36600 nM | GI50 [16]: 1020 nM | TGI [16]: 14300 nM | GI50 [17]: 323 nM | TGI [17]: 3710 nM | GI50 [18]: 2860 nM | TGI [18]: > 100000 nM | GI50 [19]: 3160 nM | TGI [19]: > 100000 nM | GI50 [20]: 3360 nM | TGI [20]: > 100000 nM | GI50 [21]: 1910 nM | TGI [21]: 16000 nM | GI50 [22]: 2860 nM | TGI [22]: > 100000 nM | GI50 [23]: 1940 nM | TGI [23]: > 100000 nM | GI50 [24]: 2610 nM | TGI [24]: > 100000 nM | GI50 [25]: 1160 nM | TGI [25]: > 100000 nM | GI50 [26]: 2640 nM | TGI [26]: > 100000 nM | GI50 [27]: 557 nM | TGI [27]: > 100000 nM | GI50 [28]: 2250 nM | TGI [28]: > 100000 nM | GI50 [29]: 2800 nM | TGI [29]: > 100000 nM | GI50 [30]: 3260 nM | TGI [30]: > 100000 nM | GI50 [31]: 1030 nM | TGI [31]: > 100000 nM | GI50 [32]: 2700 nM | TGI [32]: > 100000 nM | GI50 [33]: 1020 nM | TGI [33]: > 100000 nM | GI50 [34]: 1820 nM | TGI [34]: > 100000 nM | GI50 [35]: 2300 nM | TGI [35]: > 100000 nM | GI50 [36]: 696 nM | TGI [36]: 7410 nM | GI50 [37]: 499 nM | TGI [37]: 10100 nM | GI50 [38]: 2420 nM | TGI [38]: > 100000 nM | GI50 [39]: 1320 nM | TGI [39]: > 100000 nM | GI50 [40]: 3730 nM | TGI [40]: > 100000 nM | GI50 [41]: 256 nM | TGI [41]: 1460 nM | GI50 [42]: 1340 nM | TGI [42]: > 100000 nM | GI50 [43]: 406 nM | TGI [43]: 3060 nM | GI50 [44]: 1990 nM | TGI [44]: > 100000 nM | GI50 [45]: 1060 nM | TGI [45]: 7340 nM | GI50 [46]: 1130 nM | TGI [46]: > 100000 nM | GI50 [47]: 1910 nM | TGI [47]: > 100000 nM | GI50 [48]: 3120 nM | TGI [48]: > 100000 nM | GI50 [49]: 2510 nM | TGI [49]: > 100000 nM | GI50 [50]: 731 nM | TGI [50]: 6870 nM | GI50 [51]: 2430 nM | TGI [51]: 8530 nM | GI50 [52]: 866 nM | TGI [52]: 5440 nM | GI50 [53]: 741 nM | TGI [53]: > 100000 nM | GI50 [54]: 244 nM | TGI [54]: 1270 nM

CCCNNC(=O)c1ccc(-c2ccc(NC(=O)CCCCCCC(=O)N[C@H](C(=O)N3C[C@H](O)C[C@H]3C(=O)N[C@@H](C)c3ccc(-c4scnc4C)cc3)C(C)(C)C)cc2)cc1
GI50 [1]: 1800 nM | TGI [1]: > 100000 nM | GI50 [2]: 7410 nM | TGI [2]: > 100000 nM | GI50 [3]: 2080 nM | TGI [3]: 8470 nM | GI50 [4]: 2460 nM | TGI [4]: > 100000 nM | GI50 [5]: 917 nM | TGI [5]: 12700 nM | GI50 [6]: 38.7 nM | TGI [6]: 1080 nM | GI50 [7]: 893 nM | TGI [7]: > 100000 nM | GI50 [8]: 2010 nM | TGI [8]: > 100000 nM | GI50 [9]: 407 nM | TGI [9]: > 100000 nM | GI50 [10]: 2630 nM | TGI [10]: > 100000 nM | GI50 [11]: 4210 nM | TGI [11]: > 100000 nM | GI50 [12]: 465 nM | TGI [12]: 2370 nM | GI50 [13]: 457 nM | TGI [13]: > 20300 nM | GI50 [14]: 357 nM | TGI [14]: > 100000 nM | GI50 [15]: 410 nM | TGI [15]: > 100000 nM | GI50 [16]: 1370 nM | TGI [16]: > 65100 nM | GI50 [55]: 345 nM | TGI [55]: > 100000 nM | GI50 [56]: 5660 nM | TGI [56]: > 100000 nM | GI50 [17]: 258 nM | TGI [17]: 2140 nM | GI50 [18]: 2860 nM | TGI [18]: > 100000 nM | GI50 [19]: 524 nM | TGI [19]: > 100000 nM | GI50 [20]: 3340 nM | TGI [20]: > 100000 nM | GI50 [21]: 785 nM | TGI [21]: 3250 nM | GI50 [22]: > 100000 nM | TGI [22]: > 100000 nM | GI50 [23]: > 100000 nM | TGI [23]: > 100000 nM | GI50 [24]: 848 nM | TGI [24]: > 39300 nM | GI50 [25]: 1880 nM | TGI [25]: > 100000 nM | GI50 [26]: 599 nM | TGI [26]: > 100000 nM | GI50 [27]: > 100000 nM | TGI [27]: > 100000 nM | GI50 [28]: 386 nM | TGI [28]: > 100000 nM | GI50 [29]: 1120 nM | TGI [29]: > 100000 nM | GI50 [30]: 1030 nM | TGI [30]: 8460 nM | GI50 [31]: 1250 nM | TGI [31]: > 100000 nM | GI50 [32]: > 100000 nM | TGI [32]: > 100000 nM | GI50 [33]: 3630 nM | TGI [33]: > 100000 nM | GI50 [34]: 5970 nM | TGI [34]: > 100000 nM | GI50 [35]: 2980 nM | TGI [35]: > 100000 nM | GI50 [36]: 1800 nM | TGI [36]: > 100000 nM | GI50 [37]: > 36600 nM | TGI [37]: > 100000 nM | GI50 [38]: 2620 nM | TGI [38]: > 47600 nM | GI50 [57]: 2220 nM | TGI [57]: > 100000 nM | GI50 [39]: > 95100 nM | TGI [39]: > 100000 nM | GI50 [40]: 845 nM | TGI [40]: > 100000 nM | GI50 [41]: 1410 nM | TGI [41]: 4360 nM | GI50 [42]: 9280 nM | TGI [42]: > 100000 nM | GI50 [43]: 1910 nM | TGI [43]: > 100000 nM | GI50 [44]: 410 nM | TGI [44]: 5280 nM | GI50 [58]: > 100000 nM | TGI [58]: > 100000 nM | GI50 [45]: 5290 nM | TGI [45]: > 100000 nM | GI50 [46]: 394 nM | TGI [46]: > 100000 nM | GI50 [47]: 2050 nM | TGI [47]: > 100000 nM | GI50 [48]: 2050 nM | TGI [48]: 11100 nM | GI50 [49]: 1280 nM | TGI [49]: 9260 nM | GI50 [50]: 1440 nM | TGI [50]: 6940 nM | GI50 [51]: 2700 nM | TGI [51]: > 100000 nM | GI50 [53]: 5020 nM | TGI [53]: > 100000 nM | GI50 [54]: 442 nM | TGI [54]: > 100000 nM
